≈ marks a conversion by molar mass, not a printed value. Entries after “also recorded” stand apart in the source; their conditions may differ. Where two headings read alike, the source gives them in different places.
Tests used:
[1] = system: P388 lymphocytic leukemia; test: P388 lymphocytic leukemia cell line (PS system) growth inhibition; type: cell-based, murine
human cancer cell lines = test: NCI panel of sixty human cancer cell lines; type: cell-based; conditions: for activity against human cancer cell lines (in words): NCI panel
From the text: (§1) Only two hundred years ago, many diseases ravaged humankind. Many of these diseases now have been controlled or eradicated. In the development of the means to treat or control these diseases, work with the appropriate common experimental animals was of critical importance. With the various types of cancers, and with the HIV virus, such work is presently ongoing. The research for the treatment of various types of cancer is coordinated in the United States by the National Cancer Institute (NCI). NCI, as a government entity, has been charged with assisting, inter alia, anti-cancer research. To determine whether a substance has anti-cancer activity, NCI has established a variety of protocols, one of which involves testing the candidate substance against a cell line panel containing 60 human tumor cell lines. This protocol has been verified and is generally accepted throughout the scientific community. This protocol and the established statistical means of evaluating the results obtained therefrom have been fully described in the literature. See Principles & Practice of Oncology PPO Updates, Volume 3, Number 10, October 1989, by Michael R. Boyd, M.D., Ph.D., for an in depth description of the test protocol. The statistical analysis of the test protocol is explained in "Display and Analysis of Patterns of Differential Activity of Drugs Against Human Tumor Cell Lines: Development of Means Graph and COMPARE Algorithm" Journal of the National Cancer Institute Reports Vol. 81, No. 14, Pg. 1088, Jul. 14, 1989, by K. D. Paull et al. The context of both of these references is specifically incorporated herein by this reference thereto.

[2] = system: NCI H460 non-small cell lung; test: NCI panel, NCI H460; type: cell-based, human
From the text: as §1, with “The statistical analysis of the test protocol is explained in "Display and Analysis of Patterns of Differential Activity of Drugs Against Human Tumor Cell Lines: Development of Means Graph and COMPARE Algorithm" Journal of the National Cancer Institute Reports Vol. 81, No. 14, Pg. 1088, Jul. 14, 1989, by K. D. Paull et al. The context of both of these references is specifically incorporated herein by this reference thereto.” left out

KM 20L2 colon = test: NCI panel, KM 20L2; type: cell-based, human
From the text: as §1, with “The statistical analysis of the test protocol is explained in "Display and Analysis of Patterns of Differential Activity of Drugs Against Human Tumor Cell Lines: Development of Means Graph and COMPARE Algorithm" Journal of the National Cancer Institute Reports Vol. 81, No. 14, Pg. 1088, Jul. 14, 1989, by K. D. Paull et al. The context of both of these references is specifically incorporated herein by this reference thereto.” left out

SF-295 CNS = test: NCI panel, SF-295; type: cell-based, human
From the text: as §1, with “The statistical analysis of the test protocol is explained in "Display and Analysis of Patterns of Differential Activity of Drugs Against Human Tumor Cell Lines: Development of Means Graph and COMPARE Algorithm" Journal of the National Cancer Institute Reports Vol. 81, No. 14, Pg. 1088, Jul. 14, 1989, by K. D. Paull et al. The context of both of these references is specifically incorporated herein by this reference thereto.” left out

SK-MEL-5 melanoma = test: NCI panel, SK-MEL-5; type: cell-based, human
From the text: as §1, with “The statistical analysis of the test protocol is explained in "Display and Analysis of Patterns of Differential Activity of Drugs Against Human Tumor Cell Lines: Development of Means Graph and COMPARE Algorithm" Journal of the National Cancer Institute Reports Vol. 81, No. 14, Pg. 1088, Jul. 14, 1989, by K. D. Paull et al. The context of both of these references is specifically incorporated herein by this reference thereto.” left out

OVCAR-3 ovarian = test: NCI panel, OVCAR-3; type: cell-based, human
From the text: as §1, with “The statistical analysis of the test protocol is explained in "Display and Analysis of Patterns of Differential Activity of Drugs Against Human Tumor Cell Lines: Development of Means Graph and COMPARE Algorithm" Journal of the National Cancer Institute Reports Vol. 81, No. 14, Pg. 1088, Jul. 14, 1989, by K. D. Paull et al. The context of both of these references is specifically incorporated herein by this reference thereto.” left out

A-498 renal = test: NCI panel, A-498; type: cell-based, human
From the text: as §1, with “The statistical analysis of the test protocol is explained in "Display and Analysis of Patterns of Differential Activity of Drugs Against Human Tumor Cell Lines: Development of Means Graph and COMPARE Algorithm" Journal of the National Cancer Institute Reports Vol. 81, No. 14, Pg. 1088, Jul. 14, 1989, by K. D. Paull et al. The context of both of these references is specifically incorporated herein by this reference thereto.” left out

## C=C/C=C\C(C)C1OC(=O)/C=C\C=C\C(C)C(O)CC(O)/C=C\C(C)C(O)C(C)CC(C)CCC(O)C1C (stereo not drawn) [dictyostatin 1]
[1]
  growth inhibition of murine P388 lymphocytic leukemia (in words): strongly inhibit growth
[1]; Mus musculus, P388, pure dictyostatin 1, read-out: P388 ED50
  IC50: 0.38 ng/mL (≈ 0.713 nM)
[1]; listed as Dictyostatin 1
  growth inhibition of murine P388 lymphocytic leukemia (in words): phenomenally potent (and selective) activity; also recorded: strongly inhibit growth
Human cancer cell lines
  activity against human cancer cell lines (in words): strong cancer cell growth inhibitory properties; also recorded: remarkably potent and specific
Human cancer cell lines; listed as Dictyostatin 1
  activity against human cancer cell lines (in words): phenomenally potent (and selective) activity; also recorded: strongly inhibit growth
Human cancer cell lines; ovarian, CNS, renal, lung (non small cell), colon, and melanoma cells
  NCI data (in words): extremely positive results
[2]
  activity against NCI H460 (in words): active and selective
KM 20L2 colon
  activity against KM 20L2 (in words): active and selective
SF-295 CNS
  activity against SF-295 (in words): active and selective
SK-MEL-5 melanoma
  activity against SK-MEL-5 (in words): active and selective
OVCAR-3 ovarian
  activity against OVCAR-3 (in words): active and selective
A-498 renal
  activity against A-498 (in words): active and selective

From US5430053A, “Isolation and structure of dictyostatin 1” (Arizona Board of Regents acting on behalf of Arizona State …, priority 1994, dated 1995)
